{
  "source": "patent US20090270438A1",
  "about": "“Novel compositions and formulations” (priority 2006, published 2009)",
  "origin": "cited, not measured here",
  "conditions": "Pharmaceutical Codex",
  "data": [
    {"smiles": "COC12CCC3(CC1C(C)(O)C(C)(C)C)C1Cc4ccc(O)c5c4C3(CCN1CC1CC1)C2O5", "note": "(stereo not shown) [buprenorphine, Buprenorphine]", "values": [
      {"measurement": "pKa", "result": 8.5}
    ]}
  ]
}
